Here are results for 3 molecules from patent publication US10669269B2, “Substituted N-(1H-indazol-4-yl)imidazo[1,2-a]pyridine-3-carboxamide compounds as type III receptor tyrosine kinase inhibitors” (ARRAY BIOPHARMA INC., priority 2010, dated 2020).

Each structure is given as a SMILES string.

Test [1] deals with T1, PDGFR beta (Homo sapiens, UniProt P09619).
T1 construct: endogenous in cells; host or cells: HS27 human fibroblast cell line
The test is described as follows: Phospho PDGFR LICOR Cell Assay (Example B). Type of test: cell-based. Particulars: averaged IC50; PDGFR beta phosphorylation in HS27 human fibroblast cell line, PDGF-BB stimulation 10 minutes, normalized to total ERK. The method, boiled down: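 Read-out is in-cell phospho-PDGFRβ/total-ERK infrared immunofluorescence in HS27 fibroblasts. Cells got 1 h compound exposure before a 10 min PDGF-BB challenge. A 4-parameter logistic fit gave IC50 as the concentration yielding 50 percent of control.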

For test [2], the target named is T1, PDGFR beta. The test is described as follows: Phospho PDGFR Cell Assay, sandwich ELISA (Example A). Type of test: cell-based. Particulars: averaged IC50, PDGFR beta phosphorylation in HS27 human fibroblast cell line, PDGF-BB stimulation 5 minutes. In a few lines: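 HS27 human fibroblasts were pretreated with compound for 1 h, stimulated with PDGF-BB for 5 min, then lysed. Phospho-PDGFR beta was measured by sandwich ELISA, and IC50 was taken as the concentration giving 50 percent of control from a 4-parameter logistic fit.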

Another test deals with T2, cFMS (Homo sapiens, UniProt P07333).
T2 construct: THP-1 cells (human acute monocytic leukemia cell line) were serum-starved for 4 hours; endogenous in cells; host or cells: THP-1 cells (human acute monocytic leukemia cell line)
T2 sequence (P07333 20-972): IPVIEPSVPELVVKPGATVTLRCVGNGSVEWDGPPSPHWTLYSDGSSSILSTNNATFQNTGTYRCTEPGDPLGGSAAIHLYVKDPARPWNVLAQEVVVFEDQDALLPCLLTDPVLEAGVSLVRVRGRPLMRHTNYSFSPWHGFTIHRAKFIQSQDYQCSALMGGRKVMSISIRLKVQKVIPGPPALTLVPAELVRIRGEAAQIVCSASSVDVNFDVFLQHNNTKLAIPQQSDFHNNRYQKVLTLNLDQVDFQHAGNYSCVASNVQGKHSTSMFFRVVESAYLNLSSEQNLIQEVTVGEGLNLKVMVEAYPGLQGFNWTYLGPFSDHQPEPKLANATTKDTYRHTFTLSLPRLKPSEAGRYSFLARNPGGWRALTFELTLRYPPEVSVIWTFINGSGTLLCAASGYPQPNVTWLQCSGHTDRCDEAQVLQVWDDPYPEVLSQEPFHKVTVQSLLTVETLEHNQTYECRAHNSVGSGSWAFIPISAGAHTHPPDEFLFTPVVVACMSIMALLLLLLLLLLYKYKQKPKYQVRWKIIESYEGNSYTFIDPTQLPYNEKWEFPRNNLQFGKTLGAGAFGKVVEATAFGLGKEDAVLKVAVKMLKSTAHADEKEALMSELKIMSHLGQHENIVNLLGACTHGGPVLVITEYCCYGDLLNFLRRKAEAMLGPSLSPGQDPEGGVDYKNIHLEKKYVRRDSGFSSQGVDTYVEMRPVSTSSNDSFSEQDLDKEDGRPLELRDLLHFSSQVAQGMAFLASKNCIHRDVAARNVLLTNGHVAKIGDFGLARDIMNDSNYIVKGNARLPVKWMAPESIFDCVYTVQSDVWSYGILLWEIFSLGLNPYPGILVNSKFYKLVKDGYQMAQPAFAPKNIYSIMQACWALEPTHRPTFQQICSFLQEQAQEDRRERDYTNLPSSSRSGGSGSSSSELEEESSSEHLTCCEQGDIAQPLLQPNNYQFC
The test is described as follows: cFMS Cell-Based Assay (Example C). The following applies: averaged IC50; phospho-cFMS in THP-1 cells stimulated with 250 ng/mL recombinant human MCSF; read-out: cFMS Cell ELISA IC50. The method, boiled down:
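Phosphotyrosine on cFMS, captured from lysates and quantified by ELISA, reads receptor activation after 1 min of 250 ng/mL human MCSF. Beforehand, THP-1 cells were serum-starved for 4 h and exposed to compound for 1 h (9 points, 3-fold, typically up to 5,000 nM). IC50 from a 4-parameter logistic fit as 50 percent of control.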

For the next test, the target named is T3, c-KIT (Homo sapiens, UniProt P10721).
T3 construct: M-07e cells (human acute megakaryoblastic leukemia cell line) were serum-starved for 4 hours; endogenous in cells; host or cells: M-07e cells (human acute megakaryoblastic leukemia cell line)
T3 sequence (P10721 26-976): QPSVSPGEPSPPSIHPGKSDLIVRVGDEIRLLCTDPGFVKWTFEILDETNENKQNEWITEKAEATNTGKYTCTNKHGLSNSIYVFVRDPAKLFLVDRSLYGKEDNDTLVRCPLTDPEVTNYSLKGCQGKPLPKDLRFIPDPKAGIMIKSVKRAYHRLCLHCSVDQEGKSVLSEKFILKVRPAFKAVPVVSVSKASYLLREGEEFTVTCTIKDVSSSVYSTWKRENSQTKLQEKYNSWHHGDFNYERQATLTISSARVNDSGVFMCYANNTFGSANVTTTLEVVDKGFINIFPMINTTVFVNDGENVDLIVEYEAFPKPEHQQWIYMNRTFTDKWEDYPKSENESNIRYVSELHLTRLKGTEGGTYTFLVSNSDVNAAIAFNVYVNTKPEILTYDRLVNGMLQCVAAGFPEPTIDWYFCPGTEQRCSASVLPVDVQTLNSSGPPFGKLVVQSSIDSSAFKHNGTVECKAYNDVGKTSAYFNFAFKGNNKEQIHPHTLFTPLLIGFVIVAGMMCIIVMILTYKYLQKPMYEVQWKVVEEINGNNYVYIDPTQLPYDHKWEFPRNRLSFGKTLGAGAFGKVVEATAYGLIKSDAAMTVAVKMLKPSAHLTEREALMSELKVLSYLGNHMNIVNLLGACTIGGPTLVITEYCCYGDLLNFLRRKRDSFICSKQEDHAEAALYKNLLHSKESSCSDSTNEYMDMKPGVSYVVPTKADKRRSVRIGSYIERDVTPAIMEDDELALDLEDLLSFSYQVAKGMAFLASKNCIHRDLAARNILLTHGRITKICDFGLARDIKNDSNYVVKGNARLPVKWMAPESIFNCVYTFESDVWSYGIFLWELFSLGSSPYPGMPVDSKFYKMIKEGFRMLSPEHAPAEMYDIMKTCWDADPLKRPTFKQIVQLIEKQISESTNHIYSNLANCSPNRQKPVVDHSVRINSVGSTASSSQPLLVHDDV
In words: c-KIT Cell-Based Assay (Example D). Particulars: averaged IC50; phospho-c-KIT in M-07e cells stimulated with 150 ng/ml recombinant human SCF; read-out: cKIT Cell ELISA IC50. In a few lines: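 Phospho-c-KIT ELISA readout, calibrated with purified phospho-SCF R, gave IC50 (4-parameter fit, 50% of control). Before lysis, M-07e cells were starved 4 h, exposed 1 h to a 9-point 3-fold series (highest usually 5,000 nM), and stimulated with 150 ng/ml SCF for 4 min.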

T1 sequence (P09619 33-1106): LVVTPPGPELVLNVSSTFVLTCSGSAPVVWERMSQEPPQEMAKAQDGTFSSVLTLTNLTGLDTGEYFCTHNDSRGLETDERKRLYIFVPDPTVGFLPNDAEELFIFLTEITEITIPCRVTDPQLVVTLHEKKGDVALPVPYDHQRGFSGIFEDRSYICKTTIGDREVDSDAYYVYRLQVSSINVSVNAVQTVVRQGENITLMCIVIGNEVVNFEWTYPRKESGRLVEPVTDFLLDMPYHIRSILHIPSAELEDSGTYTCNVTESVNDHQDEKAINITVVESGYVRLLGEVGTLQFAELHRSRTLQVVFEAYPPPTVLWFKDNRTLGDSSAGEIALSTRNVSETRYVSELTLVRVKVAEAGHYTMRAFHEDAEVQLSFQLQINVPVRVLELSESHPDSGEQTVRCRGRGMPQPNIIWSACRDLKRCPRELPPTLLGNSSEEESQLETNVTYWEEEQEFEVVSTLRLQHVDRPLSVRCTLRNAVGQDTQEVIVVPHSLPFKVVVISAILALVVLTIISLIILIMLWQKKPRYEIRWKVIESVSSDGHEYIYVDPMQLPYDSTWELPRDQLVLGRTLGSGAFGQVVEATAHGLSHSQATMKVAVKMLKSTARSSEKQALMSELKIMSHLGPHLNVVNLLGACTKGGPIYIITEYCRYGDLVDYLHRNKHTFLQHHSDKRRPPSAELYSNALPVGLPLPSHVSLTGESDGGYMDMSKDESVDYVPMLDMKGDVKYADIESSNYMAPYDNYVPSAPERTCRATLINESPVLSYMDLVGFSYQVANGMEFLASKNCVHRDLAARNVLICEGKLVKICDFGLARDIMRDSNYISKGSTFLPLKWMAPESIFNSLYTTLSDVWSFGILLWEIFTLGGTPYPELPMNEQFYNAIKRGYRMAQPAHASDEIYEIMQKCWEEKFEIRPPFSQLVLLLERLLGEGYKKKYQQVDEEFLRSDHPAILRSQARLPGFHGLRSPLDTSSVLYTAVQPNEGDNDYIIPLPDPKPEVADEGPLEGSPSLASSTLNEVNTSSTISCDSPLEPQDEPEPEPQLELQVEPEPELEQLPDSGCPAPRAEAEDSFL

As for `Cc1nn(Cc2csc(C(C)C)n2)c2cccc(NC(=O)c3cnc4cc(OCCN5CC6(COC6)C5)ccn34)c12` [Example 14, 7-(2-(2-oxa-6-azaspiro[3.3]heptan-6-yl)ethoxy)-N-(1-((2-isopropylthiazol-4-yl)methyl)-3-methyl-1H-indazol-4-yl)imidazo[1,2-a]pyridine-3-carboxamide], the IC50 came to 36.6 nM against PDGFR beta [1], 37.7 nM against PDGFR beta [2], 20.6 nM on cFMS and 96.4 nM on c-KIT.

With `Cc1nn(Cc2cccc(C3CC3)n2)c2cccc(NC(=O)c3cnc4cc(OCCN5CCN(C)C(C)(C)C5)ccn34)c12` [Example 19, N-(1-((6-cyclopropylpyridin-2-yl)methyl)-3-methyl-1H-indazol-4-yl)-7-(2-(3,3,4-trimethylpiperazin-1-yl)ethoxy)imidazo[1,2-a]pyridine-3-carboxamide], the IC50 stood at 247 nM against PDGFR beta [1], 43.2 nM on PDGFR beta [2], 9.4 nM on cFMS and 39.1 nM on c-KIT.

Turning to `Cc1nn(Cc2cccc(C(C)C)n2)c2cccc(NC(=O)c3cnc4cc(OCCN5CC6(CN(C)C6)C5)ccn34)c12` [Example 4, N-(1-((6-isopropylpyridin-2-yl)methyl)-3-methyl-1H-indazol-4-yl)-7-(2-(6-methyl-2,6-diazaspiro[3.3]heptan-2-yl)ethoxy)imidazo[1,2-a]pyridine-3-carboxamide], the concentration for half-maximal inhibition (IC50) against PDGFR beta [1] worked out at 10.7 nM; against PDGFR beta [2], 27.9 nM; at cFMS, 29.4 nM; on c-KIT it was 81.6 nM.
